The values that follow come from patent US20210300936A1, “PYRAZOLOTRIAZOLOPYRIMIDINE DERIVATIVES AS A2A RECEPTOR ANTAGONIST” (BEIGENE, LTD., priority 2018, published 2021).

This assay addresses human A2A receptor (A2AR) (Homo sapiens, UniProt P29274). The assay is described as follows: Luciferase reporter assay (HEK293-A2AR-luc2p/CRE/Hygro cells, 3 nM CGS21680). It counts as cell-based. The settings on record: 3 nM CGS21680, 5 h incubation. In short, it runs like this: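 HEK293 cells stably expressing A2AR with a CRE-luc2P reporter were seeded in 1% FBS with 1 U/mL adenosine deaminase. After 18 h, cells got 3 nM CGS21680 plus antagonist at 0.1–10000 nM for 5 h, followed by a luciferase readout. IC50 is relative to the 3 nM CGS21680 signal, set as 100%.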
In general terms: A reporter such as luciferase makes a cellular process visible.

human A2A receptor (A2AR), sequence (P29274 whole entry): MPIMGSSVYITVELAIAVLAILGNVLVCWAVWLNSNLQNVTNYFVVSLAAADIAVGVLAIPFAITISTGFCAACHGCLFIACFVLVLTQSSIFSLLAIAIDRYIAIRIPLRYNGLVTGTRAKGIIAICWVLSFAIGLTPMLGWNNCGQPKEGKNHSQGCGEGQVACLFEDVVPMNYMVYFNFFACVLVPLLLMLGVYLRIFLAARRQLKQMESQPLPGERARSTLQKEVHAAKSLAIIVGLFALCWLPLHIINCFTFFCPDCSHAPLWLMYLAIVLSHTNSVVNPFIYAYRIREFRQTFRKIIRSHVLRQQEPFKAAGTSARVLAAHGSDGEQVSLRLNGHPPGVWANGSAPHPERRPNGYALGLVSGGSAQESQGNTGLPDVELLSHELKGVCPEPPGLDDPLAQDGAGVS

As for `COCCOc1ccc(N2CCN(C(=O)C(c3ccc(F)cc3)n3ncc4c3nc(N)n3nc(-c5ccco5)nc43)CC2)cc1` (stereo not shown) [Compound A28, 2-(5-amino-2-(furan-2-yl)-7H-pyrazolo[4,3-e][1,2,4]triazolo[1,5-c]pyrimidin-7-yl)-2-(4-fluorophenyl)-1-(4-(4-(2-methoxyethoxy)phenyl)piperazin-1-yl)ethan-1-one], the IC50 stood at 0.0076 µM. `CCCC(C(=O)N1CCN(c2ccc(OCCOC)cc2)CC1)n1cc2c(nc(N)n3nc(-c4ccco4)nc23)n1` (single isomer, unassigned) [Compound C5a]: the IC50 stood at 0.055 µM. The molecule `COCCOc1ccc(N2CCN(C(=O)[C@](C)(c3ccccc3)n3ncc4c3nc(N)n3nc(-c5ccco5)nc43)CC2)cc1F` [Compound A66a, (S)-2-(5-amino-2-(furan-2-yl)-7H-pyrazolo[4,3-e][1,2,4]triazolo[1,5-c]pyrimidin-7-yl)-1-(4-(3-fluoro-4-(2-methoxyethoxy)phenyl)piperazin-1-yl)-2-phenylpropan-1-one] had an IC50 of 0.0168 µM.

The molecule `CC(C(=O)N1CCN(c2ccc(C(=O)N3CCCCC3)cc2)CC1)(c1ccccc1)n1ncc2c1nc(N)n1nc(-c3ccco3)nc21` (stereo not shown) [Compound A102, 2-(5-amino-2-(furan-2-yl)-7H-pyrazolo[4,3-e][1,2,4]triazolo[1,5-c]pyrimidin-7-yl)-2-phenyl-1-(4-(4-(piperidine-1-carbonyl)phenyl)piperazin-1-yl)propan-1-one] showed an IC50 of 0.0092 µM. `COCCOc1ccc(N2CCN(C(=O)C(c3ccccc3)n3ncc4c3nc(N)n3nc(-c5ccco5)nc43)CC2C)cc1` (single isomer, unassigned) [Compound A46a] showed an IC50 of 0.0674 µM.

As for `COCCOc1cc(F)c(N2CCN(C(=O)[C@@](C)(c3ccccc3)n3ncc4c3nc(N)n3nc(-c5ccco5)nc43)CC2)cc1F` [Compound A65b, (R)-2-(5-amino-2-(furan-2-yl)-7H-pyrazolo[4,3-e][1,2,4]triazolo[1,5-c]pyrimidin-7-yl)-1-(4-(2,5-difluoro-4-(2-methoxyethoxy)phenyl)piperazin-1-yl)-2-phenylpropan-1-one], the IC50 was 0.0033 µM. The molecule `CCCC(C(=O)N1CCN(c2ccc(F)cc2F)CC1)n1ncc2c1nc(N)n1nc(-c3ccco3)nc21` (stereo not shown) [Compound A20, 2-(5-amino-2-(furan-2-yl)-7H-pyrazolo[4,3-e][1,2,4]triazolo[1,5-c]pyrimidin-7-yl)-1-(4-(2,4-difluorophenyl)piperazin-1-yl)pentan-1-one] returned an IC50 of 0.0043 µM.

In the case of `CCCCC(C(=O)N1CCN(c2ccc(OCCOCCOC)cc2)CC1)n1ncc2c1nc(N)n1nc(-c3ccco3)nc21` (stereo not shown) [Compound A11, 2-(5-amino-2-(furan-2-yl)-7H-pyrazolo[4,3-e][1,2,4]triazolo[1,5-c]pyrimidin-7-yl)-1-(4-(4-(2-(2-methoxyethoxy)ethoxy)phenyl)piperazin-1-yl)hexan-1-one], 0.0069 µM corresponded to half-maximal inhibition (IC50). For `COCCOc1ccc(N2CCN(C(=O)C(C(C)C)n3cc4c(nc(N)n5nc(-c6ccco6)nc45)n3)CC2)cc1` (stereo not shown) [Compound C2, 2-(5-amino-2-(furan-2-yl)-8H-pyrazolo[4,3-e][1,2,4]triazolo[1,5-c]pyrimidin-8-yl)-1-(4-(4-(2-methoxyethoxy)phenyl)piperazin-1-yl)-3-methylbutan-1-one] the value was 0.648 µM; for `COCCOc1ccc(N2CCN(C(=O)C(c3ccccc3F)n3ncc4c3nc(N)n3nc(-c5ccco5)nc43)CC2)cc1` (single isomer, unassigned) [Compound A43a], 0.0161 µM; for `COCCOCCOc1ccc(N2CCN(C(=O)C(c3ccccc3)n3cc4c(nc(N)n5nc(-c6ccco6)nc45)n3)CC2)cc1` (stereo not shown) [Compound C15, 2-(5-amino-2-(furan-2-yl)-8H-pyrazolo[4,3-e][1,2,4]triazolo[1,5-c]pyrimidin-8-yl)-1-(4-(4-(2-(2-methoxyethoxy)ethoxy)phenyl)piperazin-1-yl)-2-phenylethan-1-one], 0.017 µM. For `COCCOCCOc1ccc(N2CCN(C(=O)C(C)n3ncc4c3nc(N)n3nc(-c5ccco5)nc43)CC2)cc1` (stereo not shown) [Compound A9, 2-(5-amino-2-(furan-2-yl)-7H-pyrazolo[4,3-e][1,2,4]triazolo[1,5-c]pyrimidin-7-yl)-1-(4-(4-(2-(2-methoxyethoxy)ethoxy)phenyl)piperazin-1-yl)propan-1-one] the value was 0.0591 µM; for `COCCOc1ccc(N2CCN(C(=O)[C@](C)(c3ccccc3)n3ncc4c3nc(N)n3nc(-c5ccco5)nc43)CC2)c(F)c1` [Compound A64a, (S)-2-(5-amino-2-(furan-2-yl)-7H-pyrazolo[4,3-e][1,2,4]triazolo[1,5-c]pyrimidin-7-yl)-1-(4-(2-fluoro-4-(2-methoxyethoxy)phenyl)piperazin-1-yl)-2-phenylpropan-1-one], 0.0175 µM; for `COCCOc1ccc(N2CCN(C(=O)C(CC(C)C)n3ncc4c3nc(N)n3nc(-c5ccco5)nc43)CC2)cc1` (stereo not shown) [Compound A16, 2-(5-amino-2-(furan-2-yl)-7H-pyrazolo[4,3-e][1,2,4]triazolo[1,5-c]pyrimidin-7-yl)-1-(4-(4-(2-methoxyethoxy)phenyl)piperazin-1-yl)-4-methylpentan-1-one], 0.0013 µM. Take `COCCOCCOc1ccc(N2CCN(C(=O)C(c3ccccc3)n3ncc4c3nc(N)n3nc(-c5ccco5)nc43)CC2)cc1` (stereo not shown) [Compound A14, 2-(5-amino-2-(furan-2-yl)-7H-pyrazolo[4,3-e][1,2,4]triazolo[1,5-c]pyrimidin-7-yl)-1-(4-(4-(2-(2-methoxyethoxy)ethoxy)phenyl)piperazin-1-yl)-2-phenylethan-1-one]: half-maximal inhibition (IC50) was put at 0.0127 µM. Take `COCCOc1ccc(N2CCN(C(=O)C(c3ccc(OC)cc3)n3ncc4c3nc(N)n3nc(-c5ccco5)nc43)CC2)cc1` (stereo not shown) [Compound A29, 2-(5-amino-2-(furan-2-yl)-7H-pyrazolo[4,3-e][1,2,4]triazolo[1,5-c]pyrimidin-7-yl)-1-(4-(4-(2-methoxyethoxy)phenyl)piperazin-1-yl)-2-(4-methoxyphenyl)ethan-1-one]: the IC50 is 0.0205 µM. The molecule `CC(C(=O)N1CCC[C@@H](O)C1)(c1ccccc1)n1ncc2c1nc(N)n1nc(-c3ccco3)nc21` (stereo partly drawn) [Compound B32, 2-(5-amino-2-(furan-2-yl)-7H-pyrazolo[4,3-e][1,2,4]triazolo[1,5-c]pyrimidin-7-yl)-1-((R)-3-hydroxypiperidin-1-yl)-2-phenylpropan-1-one] came in with an IC50 of 0.111 µM. For `CN(C)C(=O)C(C)(c1ccccc1)n1ncc2c1nc(N)n1nc(-c3ccco3)nc21` (stereo not shown) [Compound B20, 2-(5-amino-2-(furan-2-yl)-7H-pyrazolo[4,3-e][1,2,4]triazolo[1,5-c]pyrimidin-7-yl)-N,N-dimethyl-2-phenylpropanamide] the value was 0.02 µM; for `CC(C(=O)N1CCN(c2cccc(C(=O)NCC3(O)COC3)c2)CC1)(c1ccccc1)n1ncc2c1nc(N)n1nc(-c3ccco3)nc21` (stereo not shown) [Compound A91, 3-(4-(2-(5-amino-2-(furan-2-yl)-7H-pyrazolo[4,3-e][1,2,4]triazolo[1,5-c]pyrimidin-7-yl)-2-phenylpropanoyl)piperazin-1-yl)-N-((3-hydroxyoxetan-3-yl)methyl)benzamide], 0.0033 µM.

The IC50 is the concentration at which inhibition is half-maximal. Higher therefore signals weaker potency.
